What was measured:
Assay type in all cases: functional
[1] = system: Klebsiella; experiment: Minimum inhibitory concentration required for the antibacterial activity against Klebsiella 63
[2] = system: Staphylococcus aureus; experiment: Minimum inhibitory concentration required for the antibacterial activity against Staphylococcus aureus 25464
[3] = system: Enterobacter cloacae; experiment: Minimum inhibitory concentration required for the antibacterial activity against Enterobacter cloacae 5744
[4] = system: Morganella morganii; experiment: Minimum inhibitory concentration required for the antibacterial activity against Proteus Morganii 932
[5] = system: Pseudomonas aeruginosa; experiment: Minimum inhibitory concentration required for the antibacterial activity against Pseudomonas aeruginosa F41
[6] = system: Enterobacter cloacae; experiment: Minimum inhibitory concentration required for the antibacterial activity against Enterobacter cloacae 56 US
[7] = system: Klebsiella; experiment: Minimum inhibitory concentration required for the antibacterial activity against Klebsiella 1852
[8] = system: Prevotella melaninogenica; experiment: Minimum inhibitory concentration required for the antibacterial activity against Bacillus melaninogenicus Heidelberg
[9] = system: Prevotella melaninogenica; experiment: Minimum inhibitory concentration required for the antibacterial activity against Bacillus melaninogenicus Kr
[10] = system: Escherichia coli; experiment: Minimum inhibitory concentration required for the antibacterial activity against Escherichia coli C165
[11] = system: Staphylococcus aureus; experiment: Minimum inhibitory concentration required for the antibacterial activity against Staphylococcus aureus 25470
[12] = system: Proteus vulgaris; experiment: Minimum inhibitory concentration required for the antibacterial activity against Proteus vulgaris N6
[13] = system: Fusobacterium necrophorum; experiment: Minimum inhibitory concentration required for the antibacterial activity against Sphaerophorus necrophorus Kr
[14] = system: Staphylococcus aureus; experiment: Minimum inhibitory concentration required for the antibacterial activity against Staphylococcus aureus 77 Innsbruck
[15] = system: Peptostreptococcus anaerobius; experiment: Minimum inhibitory concentration required for the antibacterial activity against Peptostrept. anaer. 222 I/82
[16] = system: Clostridium sporogenes; experiment: Minimum inhibitory concentration required for the antibacterial activity against Clostridium sporogenes
[17] = system: Bacteroides fragilis; experiment: Minimum inhibitory concentration required for the antibacterial activity against Bacillus fragilis GA I - 0558 Japan
[18] = system: Peptoniphilus asaccharolyticus; experiment: Minimum inhibitory concentration required for the antibacterial activity against Peptococcus asacchar. DSM 20463
[19] = system: Enterococcus faecalis; experiment: Minimum inhibitory concentration required for the antibacterial activity against Streptococcus faecalis 27101
[20] = system: Bacteroides fragilis; experiment: Minimum inhibitory concentration required for the antibacterial activity against Bacillus fragilis L 1168 Italien
[21] = system: Proteus mirabilis; experiment: Minimum inhibitory concentration required for the antibacterial activity against Proteus mirabilis 1235
[22] = system: Staphylococcus aureus; experiment: Minimum inhibitory concentration required for the antibacterial activity against Staphylococcus aureus 48N Munchen

C[C@@H](O)[C@H]1C(=O)N2C(C(=O)[O-])=C(C(C)(C)C)O[C@H]12.[K+]
MIC [1]: 4 µg/mL
MIC [2]: 3.12 µg/mL
MIC [3]: 32 µg/mL
MIC [4]: 2 µg/mL
MIC [5]: > 128 µg/mL
MIC [6]: 16 µg/mL
MIC [7]: 16 µg/mL
MIC [8]: 4 µg/mL
MIC [9]: 0.5 µg/mL
MIC [10]: 8 µg/mL
MIC [11]: 50 µg/mL
MIC [12]: 1 µg/mL
MIC [13]: 1 µg/mL
MIC [14]: ≤ 0.78 µg/mL
MIC [15]: 2 µg/mL
MIC [16]: 0.5 µg/mL
MIC [17]: 2 µg/mL
MIC [18]: 0.5 µg/mL
MIC [19]: 2 µg/mL
MIC [20]: 2 µg/mL
MIC [21]: 4 µg/mL
MIC [22]: ≤ 0.78 µg/mL
